# ChEMBL document CHEMBL3638977, “Heteroaryl sodium channel inhibitors” (2015)
# Target: Sodium channel protein type 9 subunit alpha (Homo sapiens, UniProt Q15858)
# Test: In Vitro Assay: 293 cells stably transfected with either Nav 1.7 or with Nav 1.5 were recorded in population patch-clamp mode with the IonWorks® Quattro automated electrophysiology system in accordance with the manufacturer's specifications (Molecular Devices, LLC, Sunnyvale, Calif.). Sodium channel currents were measured in response to a train of depolarizations that induced successively greater inactivation.Cells were held at −110 mV for three seconds (Nav 1.7) or half a second (Nav 1.5) from a holding voltage of −15 mV, then put through a series of 26 pulses of 150 msec duration to −20 mV at a frequency of 5 Hz. Cells were then left unclamped for a period of 3 to 8 minutes while a single concentration of test compound was added. Cells were then reclamped and put through the same voltage protocol. Current at the end of the 26th pulse to −20 mV was subtracted from the peak current evoked by the 26th pulse to −20 mV to correct for leak current.
# Format: cell-based
# Sequence of Sodium channel protein type 9 subunit alpha (Q15858 whole entry): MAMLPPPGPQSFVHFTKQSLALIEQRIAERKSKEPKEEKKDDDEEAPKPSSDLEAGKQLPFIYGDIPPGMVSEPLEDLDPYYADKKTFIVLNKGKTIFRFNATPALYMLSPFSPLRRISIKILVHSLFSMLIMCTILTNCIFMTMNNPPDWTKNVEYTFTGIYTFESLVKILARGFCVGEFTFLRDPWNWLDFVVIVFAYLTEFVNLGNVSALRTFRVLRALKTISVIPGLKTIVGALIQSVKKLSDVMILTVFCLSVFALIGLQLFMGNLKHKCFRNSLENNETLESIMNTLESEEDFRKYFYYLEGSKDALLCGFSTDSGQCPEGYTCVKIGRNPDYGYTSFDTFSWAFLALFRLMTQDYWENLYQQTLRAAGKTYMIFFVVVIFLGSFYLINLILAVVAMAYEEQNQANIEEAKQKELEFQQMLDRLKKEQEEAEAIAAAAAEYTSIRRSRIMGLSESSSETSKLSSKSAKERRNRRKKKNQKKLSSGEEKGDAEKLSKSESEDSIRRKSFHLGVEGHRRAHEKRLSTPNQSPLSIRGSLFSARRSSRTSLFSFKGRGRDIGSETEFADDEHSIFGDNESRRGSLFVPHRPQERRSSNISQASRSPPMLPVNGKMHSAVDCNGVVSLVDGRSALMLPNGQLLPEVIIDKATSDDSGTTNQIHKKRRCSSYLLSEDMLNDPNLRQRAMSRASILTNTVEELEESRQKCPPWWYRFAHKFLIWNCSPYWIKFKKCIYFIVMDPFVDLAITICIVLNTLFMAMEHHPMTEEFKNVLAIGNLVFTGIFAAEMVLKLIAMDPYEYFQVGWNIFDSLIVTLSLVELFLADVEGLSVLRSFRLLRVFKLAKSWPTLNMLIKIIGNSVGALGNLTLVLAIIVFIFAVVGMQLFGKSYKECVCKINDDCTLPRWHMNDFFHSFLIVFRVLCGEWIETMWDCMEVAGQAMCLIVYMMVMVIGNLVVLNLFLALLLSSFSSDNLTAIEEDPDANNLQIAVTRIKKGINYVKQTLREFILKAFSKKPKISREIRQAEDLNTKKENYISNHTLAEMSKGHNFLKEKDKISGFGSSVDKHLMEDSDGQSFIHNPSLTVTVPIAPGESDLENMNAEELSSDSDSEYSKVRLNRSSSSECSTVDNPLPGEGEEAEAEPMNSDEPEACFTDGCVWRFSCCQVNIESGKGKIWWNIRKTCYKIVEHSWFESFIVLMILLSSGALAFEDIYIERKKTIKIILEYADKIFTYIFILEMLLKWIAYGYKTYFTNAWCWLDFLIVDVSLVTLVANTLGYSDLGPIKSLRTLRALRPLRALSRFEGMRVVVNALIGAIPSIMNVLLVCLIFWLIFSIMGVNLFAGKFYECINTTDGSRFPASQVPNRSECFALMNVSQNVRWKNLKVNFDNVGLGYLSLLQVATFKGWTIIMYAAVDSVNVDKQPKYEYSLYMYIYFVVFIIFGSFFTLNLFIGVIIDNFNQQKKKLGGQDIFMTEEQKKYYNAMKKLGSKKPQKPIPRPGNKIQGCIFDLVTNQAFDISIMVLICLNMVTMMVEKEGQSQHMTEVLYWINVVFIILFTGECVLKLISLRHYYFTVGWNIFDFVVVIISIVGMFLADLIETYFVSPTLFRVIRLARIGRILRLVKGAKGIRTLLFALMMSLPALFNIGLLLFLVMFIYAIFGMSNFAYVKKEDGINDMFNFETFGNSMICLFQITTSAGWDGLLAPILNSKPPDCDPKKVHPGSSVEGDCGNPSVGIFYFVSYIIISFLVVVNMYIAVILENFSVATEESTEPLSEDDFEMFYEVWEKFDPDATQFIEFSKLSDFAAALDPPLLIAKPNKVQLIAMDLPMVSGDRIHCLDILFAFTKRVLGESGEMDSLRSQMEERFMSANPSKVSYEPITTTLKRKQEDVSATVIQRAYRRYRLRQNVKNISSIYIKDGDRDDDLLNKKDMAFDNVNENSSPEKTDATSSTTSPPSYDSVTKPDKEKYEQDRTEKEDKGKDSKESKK
row,SMILES,IC50
1,Cn1cc(-c2cccc3ncccc23)c2ccc(S(=O)(=O)Nc3ncns3)cc21,663 nM
2,Cc1cc(C#N)ccc1-c1cn(C)c2cc(S(=O)(=O)Nc3ncns3)ccc12,2350 nM
3,Cn1cc(-c2cccc3ccccc23)c2ccc(S(=O)(=O)Nc3ncns3)cc21,306 nM
4,Cn1cc(-c2ccc(C#N)c(F)c2)c2ccc(S(=O)(=O)Nc3ncns3)cc21,3060 nM
5,Cn1cc(-c2ccc(OC(F)(F)F)cc2)c2ccc(S(=O)(=O)Nc3ncns3)cc21,4670 nM
6,Cc1noc(C)c1-c1cn(C)c2cc(S(=O)(=O)Nc3ncns3)ccc12,2620 nM
7,Cn1cc(-c2ccc(C(F)(F)F)c(Cl)c2)c2ccc(S(=O)(=O)Nc3ncns3)cc21,3190 nM
8,COc1ccc(-c2cn(C)c3cc(S(=O)(=O)Nc4ncns4)ccc23)c(Cl)c1,2310 nM
9,COc1cc(OC)cc(-c2cn(C)c3cc(S(=O)(=O)Nc4ncns4)ccc23)c1,5960 nM
10,Cn1cc(-c2cccc(C#N)c2)c2ccc(S(=O)(=O)Nc3ncns3)cc21,2000 nM
11,Cn1nccc1-c1cn(C)c2cc(S(=O)(=O)Nc3ncns3)ccc12,7140 nM
12,COc1ccc(-c2cn(C)c3cc(S(=O)(=O)Nc4ncns4)ccc23)c2ccccc12,2640 nM
13,Cc1cnc(N)c(-c2cn(C)c3cc(S(=O)(=O)Nc4ncns4)ccc23)c1,5950 nM
14,COc1ccc(-c2cn(C)c3cc(S(=O)(=O)Nc4ncns4)ccc23)cc1C(F)(F)F,4480 nM
15,Cn1cc(-c2ccc(Br)cc2C(F)(F)F)c2ccc(S(=O)(=O)Nc3ncns3)cc21,3530 nM
16,Cn1cc(-c2ccc(F)c(C#N)c2)c2ccc(S(=O)(=O)Nc3ncns3)cc21,1280 nM
17,COc1cc(F)ccc1-c1cn(C)c2cc(S(=O)(=O)Nc3ncns3)ccc12,338 nM
18,CN(C)c1cccc(-c2cn(C)c3cc(S(=O)(=O)Nc4ncns4)ccc23)c1,4200 nM
19,Cn1cc(-c2cccc(OC(F)(F)F)c2)c2ccc(S(=O)(=O)Nc3ncns3)cc21,870 nM
20,Cn1cc(-c2cccc(C(F)(F)F)c2)c2ccc(S(=O)(=O)Nc3ncns3)cc21,3810 nM
21,Cn1cc(-c2ccccc2C(F)(F)F)c2ccc(S(=O)(=O)Nc3ncns3)cc21,6000 nM
22,COc1ccc(-c2cn(C)c3cc(S(=O)(=O)Nc4ncns4)ccc23)c(OC)c1,904 nM
23,Cn1cc(-c2cccc(S(C)(=O)=O)c2)c2ccc(S(=O)(=O)Nc3ncns3)cc21,528 nM
24,Cn1cc(-c2ccccc2)c2ccc(S(=O)(=O)Nc3ncns3)cc21,1550 nM
